Data from patent US12139520B2 (priority 2020, dated 2024).
Numbered stars: 1 amine (or outer) side, 2 acyl side, 3 side chain; on linkers, the order of the positions; unused ones are H or OH. Bridge positions count the residues as written; N and C are the ends. Square brackets hold non-standard residues; d marks the D form. Side chains are listed from the residue outwards. Peptide text beside a SMILES is read from it. * marks the point of attachment. C20 diacid = O=C(O)CCCCCCCCCCCCCCCCCCC(=O)*; γGlu = O=C(O)[C@H](CCC(=O)[*:2])N[*:1]; Hyp = O=C(O)[C@@H]1C[C@@H](O)CN1; AEEA = NCCOCCOCC(=O)O

Legend:
hAM1 receptor = hAM1 receptor (Homo sapiens, UniProt O60895+Q16602); test: cAMP assay for in vitro receptor activation, hAM1-R; assay type: cell-based; conditions: cAMP assay, hAM1 receptor; read-out: hAM1R EC50
In short: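 cAMP accumulation was measured in a monoclonal cell line stably overexpressing the hAM1 receptor. Frozen aliquots were thawed and plated at 8000 cells/well in DPBS containing 0.05% casein and 0.5 mM IBMX.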

hAMY3 receptor = molecular target: T1, hAMY3 receptor (Homo sapiens, UniProt O60896+P30988); test: cAMP assay for in vitro receptor activation, hAMY3-R; assay type: cell-based; conditions: cAMP assay, hAMY3 receptor; read-out: hAMY3R EC50
T1 sequence (P30988 25-474): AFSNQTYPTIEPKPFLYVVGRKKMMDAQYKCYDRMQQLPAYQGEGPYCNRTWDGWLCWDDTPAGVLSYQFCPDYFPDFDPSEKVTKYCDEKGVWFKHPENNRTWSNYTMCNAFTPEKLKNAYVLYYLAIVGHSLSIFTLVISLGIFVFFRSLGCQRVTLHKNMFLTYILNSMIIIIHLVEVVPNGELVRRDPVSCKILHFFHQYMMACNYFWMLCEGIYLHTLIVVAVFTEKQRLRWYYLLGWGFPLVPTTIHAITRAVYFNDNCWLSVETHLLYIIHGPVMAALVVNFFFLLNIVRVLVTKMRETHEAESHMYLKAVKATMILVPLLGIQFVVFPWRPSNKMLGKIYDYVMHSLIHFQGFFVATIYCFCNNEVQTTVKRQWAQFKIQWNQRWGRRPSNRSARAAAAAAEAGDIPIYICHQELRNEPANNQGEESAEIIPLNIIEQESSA
T1 sequence (O60896 24-148 partner): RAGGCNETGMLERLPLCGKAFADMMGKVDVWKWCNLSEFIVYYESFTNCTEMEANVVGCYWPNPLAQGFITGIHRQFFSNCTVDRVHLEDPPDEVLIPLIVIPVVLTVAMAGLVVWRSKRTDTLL
In short: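 Receptor activation was measured as cAMP accumulation in a monoclonal cell line stably overexpressing hAMY3. Stimulation with graded doses lasted 30 min at room temperature in the presence of 0.5 mM IBMX, with human amylin as positive control.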

hAM1 receptor, sequence (Q16602 23-461): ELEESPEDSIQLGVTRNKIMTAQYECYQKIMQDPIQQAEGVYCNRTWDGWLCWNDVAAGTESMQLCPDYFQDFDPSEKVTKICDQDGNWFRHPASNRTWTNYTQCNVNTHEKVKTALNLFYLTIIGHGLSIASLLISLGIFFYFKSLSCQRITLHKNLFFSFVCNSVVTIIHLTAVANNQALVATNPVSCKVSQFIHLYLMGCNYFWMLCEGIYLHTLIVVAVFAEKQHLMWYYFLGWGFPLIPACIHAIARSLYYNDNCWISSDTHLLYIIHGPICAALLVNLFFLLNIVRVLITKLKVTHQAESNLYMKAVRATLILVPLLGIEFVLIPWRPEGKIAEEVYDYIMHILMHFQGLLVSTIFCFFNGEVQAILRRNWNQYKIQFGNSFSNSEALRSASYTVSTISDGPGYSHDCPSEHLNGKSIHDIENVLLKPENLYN
hAM1 receptor, sequence (O60895 43-175 partner): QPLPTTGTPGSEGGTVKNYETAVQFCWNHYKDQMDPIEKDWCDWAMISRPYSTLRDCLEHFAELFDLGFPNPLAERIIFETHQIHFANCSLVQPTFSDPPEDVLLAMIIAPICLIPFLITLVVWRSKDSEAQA

Row | EC50 (hAM1 receptor) | EC50 (hAMY3 receptor) | Compound
1 | > 5000 nM | 0.015 nM | CC[C@H](C)[C@H](NC(=O)[C@H](CCC(N)=O)NC(=O)[C@H](Cc1c[nH]cn1)NC(=O)[C@H](C)NC(=O)[C@H](CC(C)C)NC(=O)[C@H](CCCNC(=N)N)NC(=O)[C@H](CCC(N)=O)NC(=O)[C@@H](NC(=O)[C@@H](NC(=O)[C@@H]1CSSC[C@H](NC(=O)[C@H](CCCCN)NC(=O)CC[C@H](NC(=O)CCCCCCCCCCCCCCCCCCC(=O)O)C(=O)O)C(=O)N[C@@H](CC(N)=O)C(=O)N[C@@H]([C@@H](C)O)C(=O)N[C@@H](CO)C(=O)N[C@@H]([C@@H](C)O)C(=O)N1)[C@@H](C)O)C(C)C)C(=O)N[C@@H](C)C(=O)N[C@@H](CCC(N)=O)C(=O)N[C@@H](Cc1ccccc1)C(=O)N[C@H](C(=O)N[C@@H](CC(=O)O)C(=O)N[C@@H](CCCCN)C(=O)N[C@@H](CC(=O)O)C(=O)N[C@@H](CCCCN)C(=O)N[C@@H](CC(=O)O)C(=O)N1CCC[C@H]1C(=O)N[C@H](C(=O)N[C@@H](C)C(=O)N1CCC[C@H]1C(=O)N1CCC[C@H]1C(=O)N[C@H](C(=O)N[C@@H](CC(N)=O)C(=O)N[C@H](C(=O)NCC(=O)N[C@@H](CO)C(=O)N[C@@H](CC(N)=O)C(=O)NCC(=O)N1C[C@H](O)C[C@H]1C(N)=O)C(C)C)[C@@H](C)O)C(C)C)[C@@H](C)O [compound 88] ({C20 diacid-γGlu}-KCNTSTCTVQRLAHQIAQFTDKDKDPVAPPTNVGSNG[Hyp]-NH2; disulfide 2-7)
2 | > 5000 nM | 0.033 nM | CC[C@H](C)[C@H](NC(=O)[C@H](CCC(N)=O)NC(=O)[C@H](CCC(=O)O)NC(=O)[C@H](C)NC(=O)[C@H](CC(C)C)NC(=O)[C@H](CCCNC(=N)N)NC(=O)[C@H](CCC(N)=O)NC(=O)[C@@H](NC(=O)[C@@H](NC(=O)[C@@H]1CSSC[C@H](NC(=O)[C@@H](N)CCCCN)C(=O)N[C@@H](CC(N)=O)C(=O)N[C@@H]([C@@H](C)O)C(=O)N[C@@H](C)C(=O)N[C@@H]([C@@H](C)O)C(=O)N1)[C@@H](C)O)C(C)C)C(=O)N[C@@H](CCCCNC(=O)COCCOCCNC(=O)COCCOCCNC(=O)CC[C@H](NC(=O)CCCCCCCCCCCCCCCCCCC(=O)O)C(=O)O)C(=O)N[C@@H](CCC(N)=O)C(=O)N[C@@H](Cc1ccccc1)C(=O)N[C@H](C(=O)N[C@@H](CC(=O)O)C(=O)N[C@@H](CCCCN)C(=O)N[C@@H](CC(=O)O)C(=O)N[C@@H](CCCCN)C(=O)N[C@@H](CC(=O)O)C(=O)N[C@@H](CC(N)=O)C(=O)N[C@H](C(=O)N[C@@H](C)C(=O)N1CCC[C@H]1C(=O)N1CCC[C@H]1C(=O)N[C@H](C(=O)N[C@@H](CC(N)=O)C(=O)N[C@H](C(=O)NCC(=O)N[C@@H](CO)C(=O)N[C@@H](CC(N)=O)C(=O)NCC(=O)N1C[C@H](O)C[C@H]1C(N)=O)C(C)C)[C@@H](C)O)C(C)C)[C@@H](C)O [compound 136] (H-KCNTATCTVQRLAEQIK([AEEA-AEEA-γGlu-C20 diacid])QFTDKDKDNVAPPTNVGSNG[Hyp]-NH2; disulfide 2-7; N-terminus assumed)
3 | > 5000 nM | 0.031 nM | CC[C@H](C)[C@H](NC(=O)[C@H](CCC(N)=O)NC(=O)[C@H](CCC(=O)O)NC(=O)[C@H](C)NC(=O)[C@H](CC(C)C)NC(=O)[C@H](CCCNC(=N)N)NC(=O)[C@H](C)NC(=O)[C@@H](NC(=O)[C@@H](NC(=O)[C@@H]1CSSC[C@H](NC(=O)[C@H](CCCCN)NC(=O)CC[C@H](NC(=O)CCCCCCCCCCCCCCCCCCC(=O)O)C(=O)O)C(=O)N[C@@H](CC(N)=O)C(=O)N[C@@H]([C@@H](C)O)C(=O)N[C@@H](C)C(=O)N[C@@H]([C@@H](C)O)C(=O)N1)[C@@H](C)O)C(C)C)C(=O)N[C@@H](Cc1ccc(O)cc1)C(=O)N[C@@H](CCC(N)=O)C(=O)N[C@@H](Cc1ccccc1)C(=O)N[C@H](C(=O)N[C@@H](CC(=O)O)C(=O)N[C@@H](CCCCN)C(=O)N[C@@H](CC(=O)O)C(=O)N[C@@H](CCCCN)C(=O)N[C@@H](CC(=O)O)C(=O)N1CCC[C@H]1C(=O)N[C@H](C(=O)N[C@@H](C)C(=O)N1CCC[C@H]1C(=O)N1CCC[C@H]1C(=O)N[C@H](C(=O)N[C@@H](CC(N)=O)C(=O)N[C@H](C(=O)NCC(=O)N[C@@H](CO)C(=O)N[C@@H](CC(N)=O)C(=O)NCC(=O)N1C[C@H](O)C[C@H]1C(N)=O)C(C)C)[C@@H](C)O)C(C)C)[C@@H](C)O [compound 133] ({C20 diacid-γGlu}-KCNTATCTVARLAEQIYQFTDKDKDPVAPPTNVGSNG[Hyp]-NH2; disulfide 2-7)
4 | > 5000 nM | 0.008 nM | CC[C@H](C)[C@H](NC(=O)[C@H](CCC(N)=O)NC(=O)[C@H](Cc1c[nH]cn1)NC(=O)[C@H](C)NC(=O)[C@H](CC(C)C)NC(=O)[C@H](CCCNC(=N)N)NC(=O)[C@H](CCC(N)=O)NC(=O)[C@@H](NC(=O)[C@@H](NC(=O)[C@@H]1CSSC[C@H](NC(=O)[C@H](CCCCN)NC(=O)CC[C@H](NC(=O)CCCCCCCCCCCCCCCCCCC(=O)O)C(=O)O)C(=O)N[C@@H](CC(N)=O)C(=O)N[C@@H]([C@@H](C)O)C(=O)N[C@@H](C)C(=O)N[C@@H]([C@@H](C)O)C(=O)N1)[C@@H](C)O)C(C)C)C(=O)N[C@H](C(=O)N[C@@H](CCC(N)=O)C(=O)N[C@@H](Cc1ccccc1)C(=O)N[C@H](C(=O)N[C@@H](CC(=O)O)C(=O)N[C@@H](CCCCN)C(=O)N[C@@H](CC(=O)O)C(=O)N[C@@H](CCCCN)C(=O)N[C@@H](CC(=O)O)C(=O)N[C@@H](CC(N)=O)C(=O)N[C@H](C(=O)N[C@@H](C)C(=O)N1CCC[C@H]1C(=O)N1CCC[C@H]1C(=O)N[C@H](C(=O)N[C@@H](CC(N)=O)C(=O)N[C@H](C(=O)NCC(=O)N[C@@H](CO)C(=O)N[C@@H](CC(N)=O)C(=O)NCC(=O)N1C[C@H](O)C[C@H]1C(N)=O)C(C)C)[C@@H](C)O)C(C)C)[C@@H](C)O)[C@@H](C)O [compound 22] ({C20 diacid-γGlu}-KCNTATCTVQRLAHQITQFTDKDKDNVAPPTNVGSNG[Hyp]-NH2; disulfide 2-7)
5 | > 5000 nM | 0.038 nM | CC[C@H](C)[C@H](NC(=O)[C@H](CCC(N)=O)NC(=O)[C@H](CCC(=O)O)NC(=O)[C@H](C)NC(=O)[C@H](CC(C)C)NC(=O)[C@H](CCCNC(=N)N)NC(=O)[C@H](CCC(N)=O)NC(=O)[C@@H](NC(=O)[C@@H](NC(=O)[C@@H]1CSSC[C@H](NC(=O)[C@H](CCCCN)NC(=O)CC[C@H](NC(=O)CCCCCCCCCCCCCCCCCCC(=O)O)C(=O)O)C(=O)N[C@@H](CC(N)=O)C(=O)N[C@@H]([C@@H](C)O)C(=O)N[C@@H](C)C(=O)N[C@@H]([C@@H](C)O)C(=O)N1)[C@@H](C)O)C(C)C)C(=O)N[C@@H](C)C(=O)N[C@@H](CCC(N)=O)C(=O)N[C@@H](Cc1ccccc1)C(=O)N[C@H](C(=O)N[C@@H](CC(=O)O)C(=O)N[C@@H](CCCCN)C(=O)N[C@@H](CC(=O)O)C(=O)N[C@@H](CCCCN)C(=O)N[C@@H](CC(=O)O)C(=O)N1CCC[C@H]1C(=O)N[C@H](C(=O)N[C@@H](C)C(=O)N1CCC[C@H]1C(=O)N1CCC[C@H]1C(=O)N[C@H](C(=O)N[C@@H](CC(N)=O)C(=O)N[C@H](C(=O)NCC(=O)N[C@@H](CO)C(=O)N[C@@H](CC(N)=O)C(=O)NCC(=O)N1C[C@H](O)C[C@H]1C(N)=O)C(C)C)[C@@H](C)O)C(C)C)[C@@H](C)O [compound 144] ({C20 diacid-γGlu}-KCNTATCTVQRLAEQIAQFTDKDKDPVAPPTNVGSNG[Hyp]-NH2; disulfide 2-7)
